Data reported in patent US9771592B2, “Methods and compositions for treating or preventing pruritis” (The Johns Hopkins University, priority 2008, dated 2017).

How the values were obtained:
MrgprA1 [1] = target: T1, MrgprA1 (Mus musculus, UniProt Q91WW5); assay: Calcium imaging of HEK293 cells transfected with Mrgpr-GFP constructs; type: cell-based; set-up: expressed in transfected cells; conditions: CQ 1 mM, FMRF 2 μM
T1 sequence (Q91WW5 1-304): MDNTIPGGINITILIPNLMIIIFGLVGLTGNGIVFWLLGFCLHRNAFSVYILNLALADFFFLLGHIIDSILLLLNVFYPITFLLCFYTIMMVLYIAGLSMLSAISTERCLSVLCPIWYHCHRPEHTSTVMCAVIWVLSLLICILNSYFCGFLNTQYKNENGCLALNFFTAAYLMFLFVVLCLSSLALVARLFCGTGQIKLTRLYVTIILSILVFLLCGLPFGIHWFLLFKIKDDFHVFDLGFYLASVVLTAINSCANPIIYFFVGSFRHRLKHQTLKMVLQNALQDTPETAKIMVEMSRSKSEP
Text: Each of the twelve Mrgprs that were deleted in Mrgpr-clusterΔ^−/− mice were cloned into a mammalian expression vector (FIG. 1A), and transfected individually into human embryonic kidney (HEK) 293 cells. By fusing green fluorescent protein (GFP) to the C-termini of the Mrgpr coding sequences, both transfected cells and the proper membrane localization of the receptors was visualized. […] Increased [Ca^2+]i resulting from activation of the receptors was monitored by calcium imaging.
HEK293 cells were transfected with Mrgpr-expression constructs using Lipofectamine 2000 (Invitrogen) according to the manufacturer's protocol.

MrgprA1 [2] = target: T1, MrgprA1; assay: Rescue: Mrgpr-clusterΔ-/- DRG neurons electroporated with Mrgpr construct; type: cell-based; set-up: expressed in transfected cells; host or cells: dissociated adult DRG neurons of Mrgpr-cluster-deleted mice
Protocol: (§1) To determine whether MrgprA3 or MrgprX1 can rescue the phenotypes of DRG neurons from Mrgpr-clusterΔ^−/− mice, the Mrgpr expression constructs used in the heterologous studies were electroporated into dissociated adult DRG neurons from these mice. After 24 hour in culture, expression and membrane localization of the transfected Mrgprs in the mutant neurons could be readily visualized by GFP (FIG. 8G).

[3] = cited from earlier work
mice = assay: Scratching behavior after pruritogen injection in mice; type: in vivo, mouse; conditions: for total number of scratching bouts: first 30 min after CQ injection (200 μg/50 μl, 8 mM)
Text: Kuraishi et al., (1995). […] F. (2007) Nature 448, 700-703).

MrgprA3 = target: T2, MrgprA3 (Mus musculus, UniProt Q91WW3); assay: Rescue: Mrgpr-clusterΔ-/- DRG neurons electroporated with Mrgpr construct; type: cell-based
T2 sequence (Q91WW3 1-302): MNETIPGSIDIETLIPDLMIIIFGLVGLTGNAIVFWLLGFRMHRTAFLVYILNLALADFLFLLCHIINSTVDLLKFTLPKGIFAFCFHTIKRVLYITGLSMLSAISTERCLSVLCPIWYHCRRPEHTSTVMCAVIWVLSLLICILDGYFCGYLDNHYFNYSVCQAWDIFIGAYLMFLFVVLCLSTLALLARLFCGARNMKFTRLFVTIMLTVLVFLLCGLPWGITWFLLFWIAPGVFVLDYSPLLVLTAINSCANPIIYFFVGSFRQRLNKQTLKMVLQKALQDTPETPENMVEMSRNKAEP
Protocol: as §1

DRG neurons = assay: Whole-cell current-clamp recording of action potentials in DRG neurons; type: cell-based, mouse; conditions: CQ 1 mM
Text: To determine whether CQ can directly induce action potentials (APs) in dissociated DRG neurons, using whole-cell patch clamp recording. […] These studies provide strong evidence that CQ can directly excite a small subpopulation of sensory neurons in DRG and that Mrgprs are required for this effect. Similar to the mouse results, CQ induces robust activation in a subset of rat DRG neurons as determined by both an increase in [Ca^2+]i and generation of APs (FIG. 4).
Patch pipettes had resistances of 2-4 MΩ. […] All experiments were performed at room temperature ([…]).

SMILES: CCN(CC)CCCC(C)Nc1ccnc2cc(Cl)ccc12 (stereo not drawn) [CQ, Chloroquine]
- response of MrgprA1-transfected cells (increased [Ca2+]i) (MrgprA1 [1]): fewer than half of MrgprA1-tranfected cells responded
- MrgprA1-electroporated neurons eliciting a few APs (MrgprA1 [2]): 3 out of 7
- [Ca2+]i response of MrgprA1-electroporated mutant neurons (MrgprA1 [2]): only a small portion responded
- patients refusing further treatment because of unbearable itch ([3]; African patients): ~30%
- incidence of itch as side effect ([3]; black Africans): up to 70%
- occurrence of the first scratching behavior (mice; Mrgpr-clusterΔ-/- (KO) mice): 280.5 ± 35.0 s
- total number of scratching bouts (mice; Mrgpr-clusterΔ-/- mice): 104±13
- occurrence of the first scratching behavior (mice; WT mice): 57.8 ± 25.4 s
- time at which scratching peaked (mice; WT mice): ≤ 15 min
- first bout observed after injection (mice; WT mice, typical): 1 to 2 min
- total number of scratching bouts (mice; WT mice): 278±21
- [Ca2+]i response of MrgprA3-expressing mutant neurons (MrgprA3): showed increased [Ca^2+]i
- action potentials in MrgprA3-expressing mutant neurons (MrgprA3): generated numerous APs
- neurons showing any response (DRG neurons; Mrgpr-clusterΔ-/- mice): none of 11
- action potentials in CQ-sensitive neurons (DRG neurons; WT DRG): displayed a train of APs
